Several values for one entry are separate records, joined by “and”; a condition that tells them apart may be missing. Identical values can stand only once. Toxic doses and inconclusive results are not listed.

The source of these data is PubChem BioAssay AID330 (DTP/NCI, 2004).

The test system of the assay is P388 leukemia ip, CD2F1 mice, survival T/C. The experiment in a line: NCI In Vivo Anticancer Drug Screen. Data for tumor model P388 Leukemia (intraperitoneal) in CD2F1 (CDF1) mice. As to conditions: endpoint: median survival time, higher = longer survival. The procedure, abridged:
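Mice carrying the transplanted tumor received test compound or vehicle. Survival was recorded in each group, and the value is the treated-group measurement divided by that of the vehicle-treated control group.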

Setting [1] is: dose: 12.5 mg/kg/injection, schedule: Q01DX005 (ip), vehicle: saline with Tween-80.
The mark [2] stands for this setting: dose: 25.0 mg/kg/injection, schedule: Q01DX005 (ip), vehicle: saline with Tween-80.
The mark [3] stands for this setting: dose: 50.0 mg/kg/injection, schedule: Q01DX005 (ip), vehicle: saline with Tween-80.
The mark [4] stands for this setting: dose: 100.0 mg/kg/injection, schedule: Q01DX005 (ip), vehicle: saline with Tween-80.
[5] abbreviates: dose: 60.0 mg/kg/injection, schedule: Q01DX005 (ip), vehicle: saline with Tween-80.
Setting [6] is: dose: 120.0 mg/kg/injection, schedule: Q01DX005 (ip), vehicle: saline with Tween-80.
Setting [7] is: dose: 240.0 mg/kg/injection, schedule: Q01DX005 (ip), vehicle: saline with Tween-80.
Where [8] appears, read: dose: 50.0 mg/kg/injection, schedule: Q01DX005 (ip), vehicle: Klucel (hydroxypropylcellulose) (HPC).
[9] abbreviates: dose: 100.0 mg/kg/injection, schedule: Q01DX005 (ip), vehicle: Klucel (hydroxypropylcellulose) (HPC).
The mark [10] stands for this setting: dose: 200.0 mg/kg/injection, schedule: Q01DX005 (ip), vehicle: Klucel (hydroxypropylcellulose) (HPC).
The mark [11] stands for this setting: dose: 25.0 mg/kg/injection, schedule: Q01DX005 (ip), vehicle: Klucel (hydroxypropylcellulose) (HPC).
The mark [12] stands for this setting: dose: 50.0 mg/kg/injection, schedule: Q01DX009 (ip), vehicle: saline with Tween-80.
Where [13] appears, read: dose: 100.0 mg/kg/injection, schedule: Q01DX009 (ip), vehicle: saline with Tween-80.
Where [14] appears, read: dose: 200.0 mg/kg/injection, schedule: Q01DX009 (ip), vehicle: saline with Tween-80.

Consider `CN1CCCC(CN2c3ccccc3Sc3ccccc32)C1` (stereo not given), for which the T/C under setting [1] was 100 % of control; the T/C under setting [2] is 102 % of control; the T/C under setting [3] was 104 % of control and 105 % of control; the T/C under setting [4] is 111 % of control.

In the case of `CC1=NN(c2ccccc2)C(=O)/C1=C\c1ccc([N+](=O)[O-])cc1`, the T/C was 104 % of control under setting [5], 101 % of control under setting [6] and 103 % of control under setting [7].

`CC(C)=CCN=c1ncn(CCC(N)C(=O)O)c2nc[nH]c12` (stereo not given): the T/C is 109 % of control (dose: 3.0 mg/kg/injection, schedule: Q01DX009 (ip), vehicle: Klucel (hydroxypropylcellulose) (HPC)); 105 % of control (dose: 6.0 mg/kg/injection, schedule: Q01DX009 (ip), vehicle: Klucel (hydroxypropylcellulose) (HPC)); 115 % of control (dose: 12.0 mg/kg/injection, schedule: Q01DX009 (ip), vehicle: Klucel (hydroxypropylcellulose) (HPC)); 118 % of control (dose: 24.0 mg/kg/injection, schedule: Q01DX009 (ip), vehicle: Klucel (hydroxypropylcellulose) (HPC)); 108 % of control (dose: 48.0 mg/kg/injection, schedule: Q01DX009 (ip), vehicle: Klucel (hydroxypropylcellulose) (HPC)).

Regarding `Cc1ccc(S(=O)(=O)N(N)CCC#N)cc1`, the T/C runs as follows: under setting [8], 94 % of control; under setting [9], 97 % of control; under setting [10], 96 % of control.

As for `CNC(=O)OCc1c(COC(=O)NC)c(-c2ccc(Cl)cc2Cl)n2c1CCC2`, the T/C (dose: 100.0 mg/kg/injection, schedule: Q01DX009 (ip), vehicle: distilled water + Tween-80) was 164 % of control.

For `CC1(C)OP(=O)(O)c2ccccc21`, the T/C (dose: 50.0 mg/kg/injection, schedule: Q01DX009 (ip), vehicle: Klucel (hydroxypropylcellulose) (HPC)) is 100 % of control; the T/C (dose: 100.0 mg/kg/injection, schedule: Q01DX009 (ip), vehicle: Klucel (hydroxypropylcellulose) (HPC)) is 100 % of control; the T/C (dose: 200.0 mg/kg/injection, schedule: Q01DX009 (ip), vehicle: Klucel (hydroxypropylcellulose) (HPC)) was 88 % of control.

Consider `O=C1NCCCCC1(Cl)Cl`, for which the T/C under setting [1] is 99 % of control; the T/C under setting [2] was 101 % of control; the T/C under setting [3] is 99 % of control and 103 % of control.

Consider `Cc1ccc(Nc2ncnc3c2c(=O)n(C)c(=O)n3C)cc1C`, for which the T/C under setting [1] was 100 % of control; the T/C under setting [2] is 100 % of control; the T/C under setting [3] was 86 % of control and 91 % of control; the T/C under setting [4] is 88 % of control; the T/C (dose: 200.0 mg/kg/injection, schedule: Q01DX005 (ip), vehicle: saline with Tween-80) was 96 % of control.

With `CCCNc1cc(C)cc2[nH]c(C)nc12`, the T/C runs as follows: under setting [11], 103 % of control; under setting [8], 100 % of control; under setting [9], 103 % of control; under setting [10], 94 % of control.

For the compound `CC(=O)OC1SC(OC(C)=O)C2OC(=O)OC12` (stereo not given), the T/C reads like this: under setting [12], 101 % of control; under setting [13], 108 % of control; under setting [14], 100 % of control.

As for `Nc1ccccc1SC1CC(=O)N(c2ccccc2Cl)C1=O` (stereo not given), the T/C is 90 % of control under setting [12]; 90 % of control and 95 % of control under setting [13]; 90 % of control (dose: 100.0 mg/kg/injection, schedule: Q04DX003 (ip), vehicle: saline with Tween-80); 95 % of control under setting [14]; 90 % of control (dose: 200.0 mg/kg/injection, schedule: Q04DX003 (ip), vehicle: saline with Tween-80); 95 % of control (dose: 400.0 mg/kg/injection, schedule: Q04DX003 (ip), vehicle: saline with Tween-80).

`C=C1C(C2(C)C(OC(C)=O)CC(=O)OC3(C)COC(=O)CC32)C(OC=O)C(OC(=O)CC(C)C)C2(C)C(c3ccoc3)CC(=O)C12O` (stereo not given): the T/C was 88 % of control (dose: 0.25 mg/kg/injection, schedule: Q01DX009 (ip), vehicle: Klucel (hydroxypropylcellulose) (HPC)); 91 % of control (dose: 0.5 mg/kg/injection, schedule: Q01DX009 (ip), vehicle: Klucel (hydroxypropylcellulose) (HPC)); 88 % of control (dose: 1.0 mg/kg/injection, schedule: Q01DX009 (ip), vehicle: Klucel (hydroxypropylcellulose) (HPC)); 97 % of control (dose: 2.0 mg/kg/injection, schedule: Q01DX009 (ip), vehicle: Klucel (hydroxypropylcellulose) (HPC)).

Turning to `O=c1[nH]c2cc(Cl)ccc2nc1/C=C(O)/C=C/c1ccccc1`, the T/C under setting [5] was 98 % of control and 89 % of control; the T/C under setting [6] is 95 % of control; the T/C under setting [7] was 89 % of control and 91 % of control.

`OC(c1cc(-c2ccc(Cl)cc2)nc2ccccc12)C1CCCCN1` (stereo not given): the T/C by setting is: under setting [3], 105 % of control; under setting [4], 113 % of control.

As for `C=C(c1ccc(OC)cc1)c1ccc(OC)cc1`, the T/C under setting [12] was 103 % of control, the T/C under setting [13] is 105 % of control and the T/C under setting [14] is 102 % of control.

`CCCC[P+](CCCC)(CCCC)CCN1C(=O)c2ccccc2C1=O`: the T/C is, setting by setting: (dose: 0.78 mg/kg/injection, schedule: Q01DX009 (ip), vehicle: water) 92 % of control; (dose: 1.56 mg/kg/injection, schedule: Q01DX009 (ip), vehicle: water) 93 % of control; (dose: 3.13 mg/kg/injection, schedule: Q01DX009 (ip), vehicle: water) 106 % of control; (dose: 6.25 mg/kg/injection, schedule: Q01DX009 (ip), vehicle: water) 99 % of control; (dose: 12.5 mg/kg/injection, schedule: Q01DX009 (ip), vehicle: water) 100 % of control; (dose: 25.0 mg/kg/injection, schedule: Q01DX009 (ip), vehicle: water) 100 % of control and 101 % of control. For the same compound, the T/C by setting is: (dose: 50.0 mg/kg/injection, schedule: Q01DX009 (ip), vehicle: water) 106 % of control; (dose: 100.0 mg/kg/injection, schedule: Q01DX009 (ip), vehicle: water) 116 % of control.

As to `CC(C)(C)C1CCC2(N3CCOCC3)C(C#N)CC2C1` (stereo not given), the T/C reads like this: under setting [11], 105 % of control; under setting [8], 102 % of control; (dose: 50.0 mg/kg/injection, schedule: Q01DX005 (ip), vehicle: saline + Tween-80 + alcohol) 105 % of control; under setting [9], 103 % of control; (dose: 100.0 mg/kg/injection, schedule: Q01DX005 (ip), vehicle: saline + Tween-80 + alcohol) 110 % of control; under setting [10], 97 % of control. Moreover, where the note is “dose: 200.0 mg/kg/injection, schedule: Q01DX005 (ip), vehicle: saline + Tween-80 + alcohol”, the T/C is 94 % of control.

Turning to `CN(C)CC(CN1CCCC1)C(=O)c1ccccc1` (stereo not given), the T/C reads like this: (dose: 3.12 mg/kg/injection, schedule: Q01DX009 (ip), vehicle: saline) 96 % of control; (dose: 3.13 mg/kg/injection, schedule: Q01DX009 (ip), vehicle: saline) 96 % of control; (dose: 6.25 mg/kg/injection, schedule: Q01DX009 (ip), vehicle: saline) 99 % of control and 116 % of control (2×); (dose: 12.5 mg/kg/injection, schedule: Q01DX009 (ip), vehicle: saline) 114 % of control; (dose: 25.0 mg/kg/injection, schedule: Q01DX009 (ip), vehicle: saline) 112 % of control and 121 % of control and 122 % of control; (dose: 50.0 mg/kg/injection, schedule: Q01DX009 (ip), vehicle: saline) 102 % of control.

On to `O=c1c(Br)cc2c(-c3ccccc3)c3cc(Br)c(O)c(Br)c3oc-2c1Br`, for which the T/C is, setting by setting: under setting [5], 97 % of control; under setting [6], 97 % of control; under setting [7], 110 % of control.

For the compound `COC1=C(C)C(=O)C2=C(C1=O)C(CO)N1C(C#N)C3CC4C(C1C2N1CCOC41)N3C` (stereo not given), the T/C was 111 % of control and 117 % of control (dose: 0.15 mg/kg/injection, schedule: Q01DX005 (ip), vehicle: acid diluted with saline); 113 % of control (dose: 0.3 mg/kg/injection, schedule: Q01DX005 (ip), vehicle: acid diluted with saline); 152 % of control (dose: 0.4 mg/kg/injection, schedule: Q01DX005 (ip), vehicle: saline + alcohol); 123 % of control (dose: 0.6 mg/kg/injection, schedule: Q01DX005 (ip), vehicle: acid diluted with saline); 154 % of control (dose: 0.8 mg/kg/injection, schedule: Q01DX005 (ip), vehicle: saline + alcohol).

With `Cc1ccc(C2=C3CCCCC3c3cc(C)ccc32)cc1` (stereo not given), the T/C under setting [11] was 91 % of control, the T/C under setting [8] was 97 % of control, the T/C under setting [9] is 90 % of control and the T/C under setting [10] was 90 % of control.
